Usually IC50 stands for the concentration that inhibits the measured activity by half. Broadly, the melting point is the temperature of the solid-liquid transition.

Consider 10 molecules from article PMC6537702, “Design, synthesis, molecular modelling, and biological evaluation of novel substituted pyrimidine derivatives as potential anticancer agents for hepatocellular carcinoma” (Journal of Enzyme Inhibition and Medicinal Chemistry, 2019).

In one series the test system is HepG2 cell line. Kind of series: Resazurin cell growth inhibition assay, HepG2. The series is classed as cell-based, human. To be noted: Homo sapiens. The text has this:
(§1) All compounds 2a-e, 3a-d, and PPAD’s 4a-t were subjected to a screening system for evaluation of their anticancer activity against cell line of human cancer, namely liver (HepG2 and Huh-7) cancer and normal fibroblast cells obtained from the German Cancer Research Center (DKFZ), following the Resazurin Cell Growth Inhibition Assay[45] in comparison to the standard treatment using DOX (see Supplementary).
(§2) Cell culture and treatment
(§3) All reagents were handled in a sterile fume hood. DMEM medium, and fetal bovine serum (FBS) were purchased from Gibco;phosphate-buffered saline pH 7.4 (PBS) and trypsin-EDTA were obtained from Sigmae Aldrich. Alamar Blue or Resazurin (Promega,Mannheim, Germany) reduction assay was used to assess the cytotoxicity of the studied samples. The growth medium (DMEMmedium with 10% FBS, 10 0 U/mL penicillin, and 10 0 mg/L streptomycin), and alamar blue were stored at 48 C, while trypsineEDTA and FBS were stored frozen at 208C and thawed before use; PBS was stored at room temperature. The Hep-G2, Huh-7 and normal fibroblast cells were obtained from the German Cancer Research Center (DKFZ).Cells were cultured in 50 cm2 culture flask s (Corning) using DMEM medium supplemented with 10% FBS, penicillin (10 0 IU/mL), and streptomycin ([…]). The culture was maintained at 37 C atmosphere of 5% CO2 and 95% relative humidity. The cells were transferred to a new fl ask every 2 days and treated with trypsineEDTA to detach them from the flask . Cells were counted under a microscope using a hemacytometer (Hausser Scientific).Cell solutions were diluted with growth medium to a concentration of 1 *10^5 cells/mL and transferred to a 96-well plate, and treated with gradient concentrations of test compounds.
(§4) Resazurin cell growth inhibition assay
(§5) Alamar Blue or Resazurin (Promega, Mannheim, Germany) reduction assay was used to assess the cytotoxicity of the studied samples. The assay tests cellular viability and mitochondrial function. Briefly y, adherent cells were grown in tissue culture flask s, and then harvested by treating the fl asks with 0.025% trypsin and0.25 mM EDTA for 5 min. Once detached, cells were washed, counted and an aliquot (5 * 103cells) was placed in each well of a96-well cell culture plate in a total volume of […]. Cells were allowed to attach overnight and then treated with samples. The final concentration of samples ranged from 0 to 10 0 mM. After 4 8 h,[…] Resazurin 0.01% w/v solution was added to each well and the plates were incubated at 37C for 1 -2 h. Fluorescence was measured on an automated 96-well Infinite M2000 ProTM plate reader (Tecan, Crailsheim, Germany) using an excit ation wave-length of 54 4 nm and an emission wavelength of 590 nm. Doxorubicin was used as positive control. Each assay was done at least three times, with two replicates each. The viability was compared based on a comparison with untreated cells. IC50(on cancer cells) were the concentration of sample required to inhibit 50% of the cell proliferation and were calculated from a calibration curve by a linear regression using Microsoft Excel

In a further series the test system is Huh-7 cell line. Description: Resazurin cell growth inhibition assay, Huh-7. The series is classed as cell-based, human. To be noted: Homo sapiens.
From the text: as §1, §2, §3, §4, §5
For orientation: Alamar Blue is a resazurin reagent that responds to reducing activity.

Series [1] in a line: Resazurin cell growth inhibition assay, normal fibroblast cells. The format is cell-based. To be noted: M ± SEM of three independent experiments, read-out: Cytotoxic activity IC50, Fibroblast.
From the text: as §1, §2, §3, §4, §5

Series [2] deals with caspase 3/7 activity in HepG2 cells. Kind of series: Caspase-Glo 3/7 assay, HepG2. The format is cell-based, human. To be noted: 24 h incubation; 2 IC50, IC50, ½ IC50; vs DMSO solvent control; p < .05, n = 3.
From the text: The influence of our test samples on caspase 3/7 activity in liver cancer cells (HepG2 cells) was detected using Caspase-Glo 3/7 Assay kit (Promega, Madison, WI) as previously described[45] (see Supplementary).
as §2, §3, §4
Alamar Blue or Resazurin (Promega, Mannheim, Germany) reduction assay was used to assess the cytotoxicity of the studied samples. The assay tests cellular viability and mitochondrial function. Briefly y, adherent cells were grown in tissue culture flask s, and then harvested by treating the fl asks with 0.025% trypsin and0.25 mM EDTA for 5 min. Once detached, cells were washed, counted and an aliquot (5 * 103cells) was placed in each well of a96-well cell culture plate in a total volume of […]. Cells were allowed to attach overnight and then treated with samples. The final concentration of samples ranged from 0 to 10 0 mM. […] Fluorescence was measured on an automated 96-well Infinite M2000 ProTM plate reader (Tecan, Crailsheim, Germany) using an excit ation wave-length of 54 4 nm and an emission wavelength of 590 nm. […]
The influence of our test samples on cas pase 3/7 activity in […] was detected using Caspase -Glo 3/7 Assay kit (Promega). […] Luminescence was measured using well Infinite M2000 Pro TM instrument (Tecan).Caspase 3/7 activity was expressed as percentage of the unt reated

The test system of series [3] is caspase 3/7 activity in Huh-7 cells. Description: Caspase-Glo 3/7 assay, Huh-7. The format is cell-based, human. To be noted: 24 h incubation; 2 IC50, IC50, ½ IC50; vs DMSO solvent control; p < .05, n = 3.
Where [4] appears, read: HepG2, 48 h, resazurin assay, 48 h, M ± SEM of three independent experiments, read-out: Cytotoxic activity IC50, HepG2 cell line.
[5] abbreviates: HepG2, converted from μg/mL, read-out: IC50 against HepG2 cell line, equivalent in μM.
The mark [6] stands for this setting: Huh-7, 48 h, resazurin assay, 48 h, M ± SEM of three independent experiments, read-out: Cytotoxic activity IC50, Huh-7 cell line.
[7] abbreviates: Huh-7, converted from μg/mL, read-out: IC50 against Huh-7 cell line, equivalent in μM.

≈ marks a conversion by molar mass, not a printed value. Where two headings read alike, the source gives them in different places.

With `CN(C)c1ccc(-c2nc(N3N=C(c4c5ccccc5cc5ccccc45)CC3c3ccc(F)cc3)[nH]c(=O)c2C#N)cc1` (stereo not drawn) [Compound 4q, 2-[3-Anthracene-9-yl-5–(4-fluoro-phenyl)-4,5-dihydro-pyrazol-1-yl]-4–(4-dimethylamino-phenyl)-6-oxo-1,6-dihydro-pyrimidine-5-carbonitrile], the melting point is 182 to 184 °C. In addition, the concentration for half-maximal inhibition (IC50) in the series on HepG2 cell line (setting [4]) turned out to be 6.85 ± 0.85 µg/mL. Also, in the series on HepG2 cell line (setting [5]), the IC50 came to 11.8 µM. For the same molecule, the IC50 with Huh-7 cell line (setting [6]) stood at 8.66 ± 1.52 µg/mL. Besides, the IC50 at 48 h in series [1] worked out at 34.3 ± 6.42 µg/mL (≈ 59.3 µM). In series [2], the “activation of caspase 3/7, HepG2 cell line” value (shortened to “activation … HepG2 cell line”) is reported as “significant increase”. The “activation of caspase 3/7, Huh-7 cell line” value (shortened to “activation … Huh-7 cell line”) in series [3] is “significant increase”.

Turning to `CN(C)c1ccc(C2CC(c3c4ccccc4cc4ccccc34)=NN2c2nc(-c3ccccc3)c(C#N)c(=O)[nH]2)cc1` (stereo not drawn) [Compound 4b, 2-[3-Anthracene-9-yl-5–(4-dimethylamino-phenyl)-4,5-dihydro-pyrazol-1-yl]-6-oxo-4-phenyl-1,6-dihydro-pyrimidine-5-carbonitrile], the melting point was 120 to 122 °C. For the same molecule, the IC50 in the series on HepG2 cell line (setting [4]) was 15.3 ± 4.21 µg/mL. Besides, in the series on Huh-7 cell line (setting [6]), the IC50 came to 10.9 ± 2.14 µg/mL. For the same molecule, the IC50 at 48 h in series [1] is 33 ± 6.51 µg/mL (≈ 58.9 µM).

For `COc1cc(-c2nc(N3N=C(c4c5ccccc5cc5ccccc45)CC3c3ccc(N(C)C)cc3)[nH]c(=O)c2C#N)cc(OC)c1OC` (stereo not drawn) [Compound 4n, 2-[3-Anthracene-9-yl-5–(4-dimethylamino-phenyl)-4,5-dihydro-pyrazol-1-yl]-6-oxo-4–(3,4,5-trimethoxy-phenyl)-1,6-dihydro-pyrimidine-5-carbonitrile], the melting point lay in the range of 170 to 172 °C. For the same molecule, in the series on HepG2 cell line (setting [4]), the IC50 was 9.66 ± 1.31 µg/mL. Further, the IC50 with Huh-7 cell line (setting [6]) came to 9.54 ± 2.16 µg/mL. In series [1], the half-inhibitory concentration (IC50) at 48 h turned out to be 18.6 ± 3.17 µg/mL (≈ 28.5 µM).

Molecule `N#Cc1c(-c2ccccc2)nc(N2N=C(c3c4ccccc4cc4ccccc34)CC2c2ccc(F)cc2)[nH]c1=O` (stereo not drawn) [Compound 4a, 2-[3-Anthracene-9-yl-5–(4-fluoro-phenyl)-4,5-dihydro-pyrazol-1-yl]-6-oxo-4-phenyl-1,6-dihydro-pyrimidine-5-carbonitrile] returned a melting point of 150 to 151 °C. In the series with HepG2 cell line (setting [4]), the half-inhibitory concentration (IC50) came to 11.3 ± 2.11 µg/mL. Further, the IC50 in the series with Huh-7 cell line (setting [6]) came out at 16.8 ± 3.45 µg/mL. For the same molecule, the IC50 at 48 h in series [1] was 32.3 ± 5.22 µg/mL (≈ 60.3 µM).

The molecule `COc1cc(C2CC(c3c4ccccc4cc4ccccc34)=NN2c2nc(-c3c[nH]c4ccccc34)c(C#N)c(=O)[nH]2)cc(OC)c1OC` (stereo not drawn) [Compound 4k, 2-[3-Anthracene-9-yl-5–(3,4,5-trimethoxy-phenyl)-4,5-dihydro-pyrazol-1-yl]-4-(1H-indol-3-yl)-6-oxo-1,6-dihydro-pyrimidine-5-carbonitrile] returned a melting point of 228 to 230 °C. The IC50 in the series with HepG2 cell line (setting [4]) worked out at 14.1 ± 3.01 µg/mL. Moreover, the IC50 in the series with Huh-7 cell line (setting [6]) worked out at 13.5 ± 2.32 µg/mL. Besides, in series [1], the IC50 at 48 h stood at 27 ± 4.12 µg/mL (≈ 41.8 µM).

In turn, `COc1cc(-c2nc(N3N=C(c4c5ccccc5cc5ccccc45)CC3c3ccc(F)cc3)[nH]c(=O)c2C#N)cc(OC)c1OC` (stereo not drawn) [Compound 4m, 2-[3-Anthracene-9-yl-5–(4-fluoro-phenyl)-4,5-dihydro-pyrazol-1-yl]-6-oxo-4–(3,4,5-trimethoxy-phenyl)-1,6-dihydro-pyrimidine-5-carbonitrile] returned a melting point of 148 to 150 °C. For the same molecule, the IC50 in the series with HepG2 cell line (setting [4]) came to 8.12 ± 1.82 µg/mL. The IC50 in the series on Huh-7 cell line (setting [6]) was 7.5 ± 0.98 µg/mL. In addition, the IC50 at 48 h in series [1] came to 24.1 ± 4.34 µg/mL (≈ 38.6 µM). For the same molecule, the “activation … HepG2 cell line” value in series [2] is reported as “significant increase”. Besides, the “activation … Huh-7 cell line” value in series [3] is listed as “significant increase”.

`N#Cc1c(-c2ccccc2)nc(N2N=C(c3c4ccccc4cc4ccccc34)CC2c2c[nH]c3ccccc23)[nH]c1=O` (stereo not drawn) [Compound 4d, 2-[3-Anthracene-9-yl-5-(1H-indol-3-yl)-4,5-dihydro-pyrazol-1-yl]-6-oxo-4-phenyl-1,6-dihydro-pyrimidine-5-carbonitrile] returned a melting point of 135 to 137 °C. Moreover, the IC50 in the series on HepG2 cell line (setting [4]) was 17.2 ± 4.04 µg/mL. The IC50 in the series on Huh-7 cell line (setting [6]) was determined as 8.42 ± 1.04 µg/mL. The IC50 at 48 h in series [1] came out at 21.5 ± 4.07 µg/mL (≈ 38.6 µM).

`N#Cc1c(-c2ccc(F)cc2)nc(N2N=C(c3c4ccccc4cc4ccccc34)CC2c2ccc(F)cc2)[nH]c1=O` (stereo not drawn) [Compound 4e, 2-[3-Anthracene-9-yl-5–(4-fluoro-phenyl)-4,5-dihydro-pyrazol-1-yl]-4–(4-fluoro-phenyl)-6-oxo-1,6-dihydro-pyrimidine-5-carbonitrile]: the IC50 stood at 5.34 ± 0.21 µg/mL in the series on HepG2 cell line (setting [4]), 9.6 µM in the series with HepG2 cell line (setting [5]), 6.13 ± 1.01 µg/mL with Huh-7 cell line (setting [6]) and 11.1 µM with Huh-7 cell line (setting [7]). The IC50 at 48 h in series [1] is 24.1 ± 4.63 µg/mL (≈ 43.6 µM). Also, the “activation … HepG2 cell line” value in series [2] is “significant increase”. In addition, the “activation … Huh-7 cell line” value in series [3] is recorded as “significant increase”.

Take `N#Cc1c(-c2ccc(F)cc2)nc(N2N=C(c3c4ccccc4cc4ccccc34)CC2c2c[nH]c3ccccc23)[nH]c1=O` (stereo not drawn) [Compound 4h, 2-[3-Anthracene-9-yl-5-(1H-indol-3-yl)-4,5-dihydro-pyrazol-1-yl]-4–(4-fluoro-phenyl)-6-oxo-1,6-dihydro-pyrimidine-5-carbonitrile]: the melting point is 143 to 145 °C. Further, in the series on HepG2 cell line (setting [4]), the IC50 was 7.45 ± 1.11 µg/mL. Further, the IC50 in the series on Huh-7 cell line (setting [6]) came out at 9.77 ± 1.48 µg/mL. In addition, the IC50 at 48 h in series [1] was 23.5 ± 4.21 µg/mL (≈ 40.9 µM).

The molecule `N#Cc1c(-c2c[nH]c3ccccc23)nc(N2N=C(c3c4ccccc4cc4ccccc34)CC2c2ccc(F)cc2)[nH]c1=O` (stereo not drawn) [Compound 4i, 2-[3-Anthracene-9-yl-5–(4-fluoro-phenyl)-4,5-dihydro-pyrazol-1-yl]-4-(1H-indol-3-yl)-6-oxo-1,6-dihydro-pyrimidine-5-carbonitrile] displayed a melting point of 184 to 185 °C. In addition, in the series with HepG2 cell line (setting [4]), the half-maximal inhibitory concentration (IC50) amounted to 9.54 ± 1.24 µg/mL. Further, the IC50 with Huh-7 cell line (setting [6]) came out at 6.47 ± 0.41 µg/mL. For the same molecule, the 50% inhibitory concentration (IC50) in the series on Huh-7 cell line (setting [7]) was 11.2 µM. For the same molecule, in series [1], the IC50 at 48 h turned out to be 31.4 ± 2.07 µg/mL (≈ 54.7 µM). Also, the “activation … HepG2 cell line” value in series [2] is listed as “significant increase”. The “activation … Huh-7 cell line” value in series [3] was “significant increase”.
